Test systems include 786-0 renal; CAKI-1 renal; EKVX NSCLC; HOP-62 NSCLC; M14 melanoma; NCI-H460 lung; SF-295 CNS; SK-MEL-28 melanoma; SW-620 colon; TK-10 renal.
What all share (test): inhibition of tumour cell growth, NCI panel, 48 h

Each structure is given as a SMILES string.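 Five compound concentrations were applied to cells in 96-well plates for 48 hours; endpoints were derived by simple linear interpolation of the resulting dose-response curve. GI50 marks 50% less growth. TGI marks complete inhibition of growth.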

On to `CC[CH2][Sn]([CH2]CC)([O]C(=O)c1cccnc1SC)[O][Sn]([CH2]CC)([CH2]CC)[O]C(=O)c1cccnc1SC`, for which the GI50 is 0.313 µM in the test with 786-0 renal; 0.266 µM in the test on CAKI-1 renal; 0.699 µM in the test with EKVX NSCLC; 2.32 µM in the test on HOP-62 NSCLC; 0.513 µM with M14 melanoma; 1.99 µM in the test on NCI-H460 lung. Also, the GI50 in the test on SF-295 CNS was 1.04 µM; in the test with SK-MEL-28 melanoma it was 0.296 µM; with SW-620 colon it was 0.216 µM; in the test on TK-10 renal it was 0.409 µM. Also, the TGI in the test on 786-0 renal came to 0.675 µM; in the test with CAKI-1 renal, 0.801 µM; with EKVX NSCLC it was 2.85 µM; in the test with HOP-62 NSCLC it was 5.31 µM; in the test on M14 melanoma, 1.38 µM; with NCI-H460 lung, 4.94 µM. Further, the TGI in the test with SF-295 CNS was 3.04 µM; with SK-MEL-28 melanoma it was 0.711 µM; in the test on SW-620 colon it was 0.503 µM; in the test on TK-10 renal, 1.09 µM.

Turning to `CC(C)c1nc(CN(C)C(=O)N[C@H](C(=O)N[C@@H](Cc2ccccc2)C[C@H](O)[C@H](Cc2ccccc2)NC(=O)OCc2cncs2)C(C)C)cs1`, the GI50 was 24.7 µM in the test on 786-0 renal; 31.3 µM with CAKI-1 renal; 4.11 µM in the test on EKVX NSCLC; 19.6 µM in the test on HOP-62 NSCLC; 18 µM with M14 melanoma; 17.5 µM in the test on NCI-H460 lung. In addition, the GI50 in the test with SF-295 CNS was 22.1 µM; in the test with SK-MEL-28 melanoma, 21.5 µM; in the test on SW-620 colon, 34.9 µM; in the test with TK-10 renal, 36.6 µM. Besides, the TGI in the test with 786-0 renal is 53.5 µM; with CAKI-1 renal, 68.2 µM; in the test on EKVX NSCLC, over 100 µM; in the test with HOP-62 NSCLC, 38.2 µM; in the test on M14 melanoma, 41.7 µM; in the test with NCI-H460 lung, 55.7 µM. The TGI with SF-295 CNS is 50.5 µM; in the test with SK-MEL-28 melanoma, 47.2 µM; in the test on SW-620 colon, over 100 µM; in the test on TK-10 renal, over 92.6 µM.

Take `CN1CCN(C(=O)OCc2nc3c(N4CCOCC4)nc(Cl)nc3n2C)CC1`: the GI50 in the test on 786-0 renal is 1.56 µM; in the test with CAKI-1 renal it was 1.03 µM; with EKVX NSCLC, 1.59 µM; with HOP-62 NSCLC it was 1.53 µM; in the test on M14 melanoma it was 1.19 µM; in the test on NCI-H460 lung it was 1.64 µM. Further, the GI50 was 8.35 µM in the test with SF-295 CNS, 1.58 µM in the test on SK-MEL-28 melanoma, 0.484 µM with SW-620 colon and 1.59 µM with TK-10 renal. Moreover, the TGI in the test with 786-0 renal was found to be 3 µM; in the test on CAKI-1 renal, 2.31 µM; with EKVX NSCLC, 2.98 µM; in the test with HOP-62 NSCLC, 4.92 µM; with M14 melanoma, 2.65 µM; with NCI-H460 lung it was 3.51 µM. The TGI in the test with SF-295 CNS was 20.7 µM; in the test on SK-MEL-28 melanoma, 3.11 µM; in the test on SW-620 colon, 1.83 µM; in the test on TK-10 renal it was 3.05 µM.

As to `Cn1c2ccccc2c2c(-c3ccccc3)[n+]3ccncc3nc21`, the GI50 was over 100 µM with 786-0 renal; over 100 µM in the test with CAKI-1 renal; 51.4 µM with EKVX NSCLC; over 100 µM in the test with HOP-62 NSCLC; over 100 µM in the test on M14 melanoma; over 100 µM in the test on NCI-H460 lung. The GI50 in the test on SF-295 CNS, in the test with SK-MEL-28 melanoma, in the test with SW-620 colon and in the test on TK-10 renal was over 100 µM each time. For the same compound, the TGI in the test on 786-0 renal, in the test on CAKI-1 renal, in the test on EKVX NSCLC, in the test with HOP-62 NSCLC, in the test with M14 melanoma and in the test on NCI-H460 lung was over 100 µM throughout. Further, the TGI with SF-295 CNS, with SK-MEL-28 melanoma, in the test on SW-620 colon and with TK-10 renal was over 100 µM throughout.

As for `C[C@@H]1OC(O)[C@@H](F)[C@H](O)[C@@H]1O` (stereo not given in full), the GI50 in the test on 786-0 renal, with CAKI-1 renal, in the test on EKVX NSCLC, with HOP-62 NSCLC, with M14 melanoma and with NCI-H460 lung was over 100 µM in each case. Besides, the GI50 with SF-295 CNS, with SK-MEL-28 melanoma, in the test with SW-620 colon and with TK-10 renal was over 100 µM in each case. Moreover, the TGI with 786-0 renal, in the test with CAKI-1 renal, in the test with EKVX NSCLC, with HOP-62 NSCLC, with M14 melanoma and with NCI-H460 lung was over 100 µM throughout. Further, the TGI with SF-295 CNS, in the test with SK-MEL-28 melanoma, in the test with SW-620 colon and with TK-10 renal was over 100 µM throughout.

Consider `NC(CCC(=O)NC(CSSCCCCS(=O)O)C(=O)NCC(=O)O)C(=O)O` (stereo not given), for which the TGI in the test with 786-0 renal, in the test with CAKI-1 renal, in the test with EKVX NSCLC, with HOP-62 NSCLC, with M14 melanoma and in the test on NCI-H460 lung was over 100 µM each time. The TGI in the test on SF-295 CNS, in the test with SK-MEL-28 melanoma, in the test with SW-620 colon and in the test on TK-10 renal was over 100 µM each time.

With `Cn1c(=O)c2[nH]c(SCc3ccccn3)nc2n(C)c1=S`, the TGI in the test with 786-0 renal, with CAKI-1 renal, in the test on EKVX NSCLC, in the test on HOP-62 NSCLC, in the test on M14 melanoma and with NCI-H460 lung was over 100 µM throughout. The TGI in the test on SF-295 CNS, in the test with SK-MEL-28 melanoma, in the test with SW-620 colon and with TK-10 renal was over 100 µM throughout.

`O=C1Nc2c(C(F)(F)F)cccc2[C@]1(c1ccc(O)cc1)c1ccc(OC(F)(F)F)cc1`: the GI50 with 786-0 renal was 13.2 µM; in the test on CAKI-1 renal, 10.1 µM; in the test on EKVX NSCLC, 8.09 µM; in the test with HOP-62 NSCLC it was 15.7 µM; in the test on M14 melanoma it was 14.2 µM; in the test with NCI-H460 lung, 8.43 µM. The GI50 is 10 µM in the test on SF-295 CNS, 15 µM in the test with SK-MEL-28 melanoma, 14.5 µM with SW-620 colon and 11.5 µM in the test on TK-10 renal. Also, the TGI stood at 28.1 µM in the test on 786-0 renal; 22.7 µM in the test on CAKI-1 renal; 21.6 µM with EKVX NSCLC; 39.9 µM in the test on HOP-62 NSCLC; 29.2 µM in the test on M14 melanoma; 28.8 µM in the test with NCI-H460 lung. The TGI came out at 22.1 µM in the test with SF-295 CNS, 28.8 µM in the test on SK-MEL-28 melanoma, 32.2 µM in the test with SW-620 colon and 25.3 µM in the test on TK-10 renal.

The values are drawn from PubChem BioAssay (NCI).
